What is called AC50 is the concentration giving half of the maximal activity seen. For orientation: EC50 means the concentration needed to bring the measured effect to its halfway point. One may read the IC50 as the concentration that inhibits the measured activity by half. Broadly, the CC50 is the concentration that lowers cell viability or growth by half.

Here are results for 17 compounds from ChEMBL document CHEMBL1201862, “PubChem BioAssay data set” (2004).

The target of series [1] is Dual specificity tyrosine-phosphorylation-regulated kinase 1A (Rattus norvegicus, UniProt Q63470). Format: biochemical, Homo sapiens. To be noted: read-out: AC50.
The test system of series [2] is HEK293. Briefly: cells. To be noted: Homo sapiens.
For series [3], the system named is HEK293. Briefly: cells. To be noted: Homo sapiens. This is another data set of the same source.
In series [4] the target is T1, Rac GTPase-activating protein 1 (Homo sapiens, UniProt Q9H0H5).
T1 sequence (Q9H0H5 whole entry): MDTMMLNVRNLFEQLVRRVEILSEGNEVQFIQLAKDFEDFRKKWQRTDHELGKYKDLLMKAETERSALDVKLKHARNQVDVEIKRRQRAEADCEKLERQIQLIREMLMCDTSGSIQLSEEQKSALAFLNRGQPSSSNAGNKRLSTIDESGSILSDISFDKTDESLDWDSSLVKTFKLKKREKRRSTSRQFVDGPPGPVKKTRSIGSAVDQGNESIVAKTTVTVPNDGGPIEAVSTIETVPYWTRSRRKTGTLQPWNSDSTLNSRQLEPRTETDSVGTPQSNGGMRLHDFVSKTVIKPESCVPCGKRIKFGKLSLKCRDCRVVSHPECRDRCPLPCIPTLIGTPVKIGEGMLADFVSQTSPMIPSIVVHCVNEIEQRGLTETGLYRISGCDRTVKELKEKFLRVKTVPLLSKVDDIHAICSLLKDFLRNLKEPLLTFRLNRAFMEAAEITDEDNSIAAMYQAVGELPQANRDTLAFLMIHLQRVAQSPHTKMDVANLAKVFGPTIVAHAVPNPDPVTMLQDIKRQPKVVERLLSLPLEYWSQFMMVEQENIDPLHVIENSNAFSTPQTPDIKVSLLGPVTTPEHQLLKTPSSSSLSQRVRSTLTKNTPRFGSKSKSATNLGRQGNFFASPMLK
The series can be described thus: MgcRacGAP GTPase-activating activity inhibitors, confirmation, biochemical, ADP Hunter fluorescence, primary and confirmatory (AID 624330). Format: functional.

A further series addresses Cytochrome P450 3A4 (Homo sapiens, UniProt P08684).
The next series deals with Cytochrome P450 2C9 (Homo sapiens, UniProt P11712).
Chain of Cytochrome P450 2C9 (P11712 whole entry): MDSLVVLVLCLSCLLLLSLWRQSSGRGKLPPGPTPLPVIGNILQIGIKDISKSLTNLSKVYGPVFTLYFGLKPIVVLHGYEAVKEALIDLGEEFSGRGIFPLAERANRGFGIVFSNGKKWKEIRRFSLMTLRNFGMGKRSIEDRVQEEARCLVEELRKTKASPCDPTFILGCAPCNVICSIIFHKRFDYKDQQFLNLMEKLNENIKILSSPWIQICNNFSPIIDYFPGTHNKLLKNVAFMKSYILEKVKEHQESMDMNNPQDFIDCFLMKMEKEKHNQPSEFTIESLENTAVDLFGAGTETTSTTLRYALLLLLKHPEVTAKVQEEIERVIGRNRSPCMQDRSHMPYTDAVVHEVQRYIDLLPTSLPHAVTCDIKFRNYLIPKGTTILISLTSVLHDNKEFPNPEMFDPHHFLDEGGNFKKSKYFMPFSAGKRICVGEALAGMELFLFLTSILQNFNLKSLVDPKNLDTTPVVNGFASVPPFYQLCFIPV
A further series has as its target T2, Cytochrome P450 1A2 (Homo sapiens, UniProt P05177).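 Note: PubChem cytochrome P450 panel assay, CYP1A2 panel member.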
T2 sequence (P05177 whole entry): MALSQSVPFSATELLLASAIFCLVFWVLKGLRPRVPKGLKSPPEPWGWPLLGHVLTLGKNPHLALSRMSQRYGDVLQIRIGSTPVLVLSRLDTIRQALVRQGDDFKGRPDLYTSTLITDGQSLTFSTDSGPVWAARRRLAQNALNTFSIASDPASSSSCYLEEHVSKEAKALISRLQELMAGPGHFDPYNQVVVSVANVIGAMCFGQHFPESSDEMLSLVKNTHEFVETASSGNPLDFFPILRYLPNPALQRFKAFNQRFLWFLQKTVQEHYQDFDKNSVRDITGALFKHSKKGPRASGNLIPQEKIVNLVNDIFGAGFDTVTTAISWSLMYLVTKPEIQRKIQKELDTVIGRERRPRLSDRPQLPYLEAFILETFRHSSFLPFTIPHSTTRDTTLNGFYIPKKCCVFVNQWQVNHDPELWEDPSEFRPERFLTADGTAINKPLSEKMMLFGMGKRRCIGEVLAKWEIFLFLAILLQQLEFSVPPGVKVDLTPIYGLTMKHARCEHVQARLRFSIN

Series [5] addresses T3, Carboxy-terminal domain RNA polymerase II polypeptide A small phosphatase 1 (Homo sapiens, UniProt Q9GZU7).
T3 sequence (Q9GZU7 whole entry): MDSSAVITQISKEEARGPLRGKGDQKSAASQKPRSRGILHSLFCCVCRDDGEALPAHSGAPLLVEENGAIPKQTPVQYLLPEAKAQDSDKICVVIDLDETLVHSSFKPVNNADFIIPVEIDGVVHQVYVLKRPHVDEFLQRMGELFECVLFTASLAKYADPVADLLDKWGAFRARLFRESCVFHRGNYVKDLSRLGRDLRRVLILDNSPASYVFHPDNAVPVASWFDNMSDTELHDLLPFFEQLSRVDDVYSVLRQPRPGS
The series can be described thus: inhibitors of CTDSP1, concentration-response testing, biochemical assay, absorbance-based, actives from ultra-high-throughput screening (AID 540297). It is filed as functional.

Series [6] has as its system HEK293. The series can be described thus: NOD1 signaling inhibitors, primary screen, cell-based, luminescence, uHTS (AID 1578). It is filed as functional. The following applies: Homo sapiens.
Series [7] deals with HEK293. Briefly: NOD2 signaling inhibitors in MDP-stimulated cells, cell-based, uHTS, luminescence (AID 2001). It is filed as functional. The following applies: Homo sapiens.
For series [8], the system named is HEK293. The series can be described thus: cells. The following applies: Homo sapiens. The source holds these as a separate data set.
Series [9] addresses T4, Nucleotide-binding oligomerization domain-containing protein 1 (Homo sapiens, UniProt Q9Y239).
T4 sequence (Q9Y239 whole entry): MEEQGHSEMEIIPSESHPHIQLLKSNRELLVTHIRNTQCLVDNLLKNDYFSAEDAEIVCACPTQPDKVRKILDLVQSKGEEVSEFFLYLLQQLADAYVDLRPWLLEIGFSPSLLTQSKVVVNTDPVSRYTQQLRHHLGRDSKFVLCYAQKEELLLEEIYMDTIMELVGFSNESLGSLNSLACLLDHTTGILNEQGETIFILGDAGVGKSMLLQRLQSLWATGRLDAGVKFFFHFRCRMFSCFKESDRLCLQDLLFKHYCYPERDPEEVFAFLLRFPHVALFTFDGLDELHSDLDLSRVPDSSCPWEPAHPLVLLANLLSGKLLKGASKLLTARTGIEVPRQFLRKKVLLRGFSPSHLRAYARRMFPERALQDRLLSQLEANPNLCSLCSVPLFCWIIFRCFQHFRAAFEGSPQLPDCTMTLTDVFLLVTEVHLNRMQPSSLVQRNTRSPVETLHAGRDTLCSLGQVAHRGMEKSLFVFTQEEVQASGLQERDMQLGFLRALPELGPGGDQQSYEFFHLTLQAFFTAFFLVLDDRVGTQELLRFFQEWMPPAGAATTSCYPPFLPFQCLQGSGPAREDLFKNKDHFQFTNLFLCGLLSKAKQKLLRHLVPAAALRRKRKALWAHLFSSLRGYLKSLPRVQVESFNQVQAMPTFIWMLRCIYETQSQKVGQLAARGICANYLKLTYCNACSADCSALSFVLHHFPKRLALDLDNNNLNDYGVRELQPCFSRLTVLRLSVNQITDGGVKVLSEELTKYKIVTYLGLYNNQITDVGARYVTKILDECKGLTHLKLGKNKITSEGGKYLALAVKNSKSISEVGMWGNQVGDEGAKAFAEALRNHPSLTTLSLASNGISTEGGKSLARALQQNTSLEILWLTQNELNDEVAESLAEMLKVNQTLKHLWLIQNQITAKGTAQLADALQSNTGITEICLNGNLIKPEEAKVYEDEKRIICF
The series can be described thus: NOD1 signaling inhibitors, SAR follow-up, revised (AID 2333). It is filed as functional.

The subject of series [10] is HEK293. The series can be described thus: cells. To be noted: Homo sapiens. It is filed as functional, cell-based.
The target of another series is Tumor necrosis factor (Homo sapiens, UniProt P01375). Briefly: TNFa-triggered NF-kB activation inhibitors, SAR follow-up, cell-based, revised (AID 2337). Format: functional.
Chain of Tumor necrosis factor (P01375 whole entry): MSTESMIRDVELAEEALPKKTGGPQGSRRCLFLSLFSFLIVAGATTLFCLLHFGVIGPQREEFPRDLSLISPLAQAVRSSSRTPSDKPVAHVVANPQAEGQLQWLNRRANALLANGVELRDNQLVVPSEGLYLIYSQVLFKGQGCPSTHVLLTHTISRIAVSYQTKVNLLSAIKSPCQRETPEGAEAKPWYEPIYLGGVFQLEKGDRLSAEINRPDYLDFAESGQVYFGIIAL
For series [11], the system named is HEK293. Briefly: cells. It is filed as functional, cell-based. To be noted: Homo sapiens. The source holds these as a separate data set.
In series [12] the test system is Vero. Briefly: cells. It is filed as functional. To be noted: Chlorocebus sabaeus.
Series [13] deals with T5, Calpain-2 catalytic subunit (Sus scrofa, UniProt P43367).
T5 sequence (P43367 whole entry): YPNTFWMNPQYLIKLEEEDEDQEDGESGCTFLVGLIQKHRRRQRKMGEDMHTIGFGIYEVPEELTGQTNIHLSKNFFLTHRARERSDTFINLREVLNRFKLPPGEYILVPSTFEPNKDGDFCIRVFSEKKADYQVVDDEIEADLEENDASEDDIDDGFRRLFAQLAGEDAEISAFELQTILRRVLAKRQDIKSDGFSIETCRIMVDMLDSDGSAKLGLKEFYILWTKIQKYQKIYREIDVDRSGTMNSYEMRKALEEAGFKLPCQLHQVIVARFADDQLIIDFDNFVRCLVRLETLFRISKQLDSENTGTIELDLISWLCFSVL
The series can be described thus: pig calpain II inhibitor potency, dose response, biochemical, fluorogenic peptide substrate (AID 1420). It is filed as functional.

Series [14] deals with Vero. The series can be described thus: cells. The following applies: Chlorocebus sabaeus. Format: functional, cell-based.

Activity calls are given as the source filed them.

Chain of Cytochrome P450 3A4 (P08684 whole entry): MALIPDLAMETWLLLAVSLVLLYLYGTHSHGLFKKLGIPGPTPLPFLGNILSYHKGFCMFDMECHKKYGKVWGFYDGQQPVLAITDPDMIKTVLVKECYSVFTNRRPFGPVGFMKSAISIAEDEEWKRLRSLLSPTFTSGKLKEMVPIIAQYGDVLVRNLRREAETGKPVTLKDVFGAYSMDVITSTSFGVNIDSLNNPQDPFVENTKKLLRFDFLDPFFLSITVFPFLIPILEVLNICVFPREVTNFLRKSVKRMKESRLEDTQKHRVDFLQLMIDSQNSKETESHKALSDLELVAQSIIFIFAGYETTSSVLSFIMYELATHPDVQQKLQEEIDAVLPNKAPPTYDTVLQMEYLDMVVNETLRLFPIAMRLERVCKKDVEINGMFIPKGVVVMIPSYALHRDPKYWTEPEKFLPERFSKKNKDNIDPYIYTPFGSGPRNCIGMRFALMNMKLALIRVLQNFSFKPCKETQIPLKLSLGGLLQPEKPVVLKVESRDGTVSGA

On to `Cn1c2ccccc2c(=O)c2ccc(C#CC3(N)CCCCC3)cc21`, for which, in [1], the AC50 was 23.7 µM (active).

As to `COc1ccc(OC(F)(F)F)cc1CC1(C)C(=O)Nc2ccc(S(=O)(=O)NC3CCCCC3)cc21` (centres undefined), the EC50 in the series with HEK293 [2] and in the series with HEK293 [3] was > 59.6 µM (inactive) each time.

With `COc1nc(N)nc(NC(=O)c2cccs2)c1N=O`, the EC50 in the series on HEK293 [2] and in the series on HEK293 [3] was > 59.6 µM (inactive) throughout. In addition, in series [4], the IC50 is 116 µM (active).

On to `O=C(Nc1cccc(-c2nc3ncccc3o2)c1)c1cc2ccccc2o1`, for which, in [1], the AC50 is 0.942 µM (active).

In the case of `O=C(c1cccc(F)c1)N1CCC2(CC1)CCN(c1ccncc1)CC2`, the AC50 result at Cytochrome P450 3A4 is “inconclusive”; on Cytochrome P450 2C9, 25.1 µM (inconclusive).

Regarding `CC(C)OP(=O)(c1ccc(N(C)C)cc1)C(Nc1ccccc1)c1ccccc1` (centres undefined), the EC50 in the series with HEK293 [2] and in the series with HEK293 [3] was > 59.6 µM (inactive) each time.

Consider `COc1ccc(C(O)P(=O)(OC(C)C)OC(C)C)cc1OC` (centres undefined), for which the results for the AC50 result on Cytochrome P450 3A4 and on Cytochrome P450 1A2 were “inconclusive” and 11.2 µM (inconclusive), respectively.

With `O=C1OC(c2ccc3c(c2)OCO3)=N/C1=C\c1ccc(C(=O)O)cc1`, the half-inhibitory concentration (IC50) in [5] is 1.38 µM (active).

With `COc1ccc(N2CCN(S(=O)(=O)c3ccc4c(c3)NC(=O)C(C)S4)CC2)cc1` (centres undefined), the EC50 with HEK293 [6] is 4.87 µM (active). Further, the IC50 in the series with HEK293 [7] is 7.5 µM (active); in the series with HEK293 [8], > 20 µM (inactive); in series [9], 4.54 µM (active); with HEK293 [10], 4.28 µM (active); on Tumor necrosis factor, 10.2 µM (active); in the series on HEK293 [11] it was 12.6 µM (active).

On to `COc1ccc(/C=N/Nc2ncc(Br)cn2)c(OC)c1`, for which the 50% inhibitory concentration (IC50) in [5] was 19.6 µM (active).

As for `COc1ccc(-c2coc3cc(O)ccc3c2=O)cc1O` [CALYCOSIN], the half-maximal activity concentration (AC50) in [1] was 16.1 µM (active).

`O=C(/C=C/c1ccccc1O)c1ccc(Cl)cc1`: in the series on Vero [12], the half-maximal cytotoxic concentration (CC50) is 19.6 µM (active).

With `O=C(NC1CCCC1)C(c1ccsc1)N(Cc1ccccc1)C(=O)Cc1cccs1` (centres undefined), the EC50 in the series with HEK293 [2] and in the series with HEK293 [3] was > 59.7 µM (inactive) each time. The IC50 in [13] was > 50 µM (not active).

Regarding `Cc1c(-c2ccc(F)cc2)nc(N)c(C#N)c1-c1cccs1`, the values for the AC50 result at Cytochrome P450 3A4 and on Cytochrome P450 1A2 were “inconclusive” and 1.78 µM (inconclusive), respectively.

For `CN(C)N=Nc1nc2c(c(=O)n(C)c(=O)n2C)n1CC1CO1` (centres undefined), in the series with Vero [12], the CC50 was > 25 µM (active). For the same compound, the IC50 with Vero [14] is 21.9 µM (active).

For the compound `Cc1cccnc1NC(=O)NC(=O)c1ccc(C(C)(C)C)s1`, in the series on Vero [12], the CC50 was > 25 µM (active). Also, in the series on Vero [14], the IC50 is 22.4 µM (active).

Turning to `N#CCC(=O)Nc1ccc(C(=O)OCC(=O)Nc2ccc3ccccc3c2)cc1`, the concentration for half-maximal inhibition (IC50) in [5] was 68.5 µM (active).
